Experimental data as given in patent publication US20130261132A1, “CALCIUM-SENSING RECEPTOR-ACTIVE COMPOUNDS” (LEO PHARMA A/S, priority 2010, published 2013).

Target: T1, human CaSR (Homo sapiens, UniProt P41180)
T1 sequence (P41180 20-1078): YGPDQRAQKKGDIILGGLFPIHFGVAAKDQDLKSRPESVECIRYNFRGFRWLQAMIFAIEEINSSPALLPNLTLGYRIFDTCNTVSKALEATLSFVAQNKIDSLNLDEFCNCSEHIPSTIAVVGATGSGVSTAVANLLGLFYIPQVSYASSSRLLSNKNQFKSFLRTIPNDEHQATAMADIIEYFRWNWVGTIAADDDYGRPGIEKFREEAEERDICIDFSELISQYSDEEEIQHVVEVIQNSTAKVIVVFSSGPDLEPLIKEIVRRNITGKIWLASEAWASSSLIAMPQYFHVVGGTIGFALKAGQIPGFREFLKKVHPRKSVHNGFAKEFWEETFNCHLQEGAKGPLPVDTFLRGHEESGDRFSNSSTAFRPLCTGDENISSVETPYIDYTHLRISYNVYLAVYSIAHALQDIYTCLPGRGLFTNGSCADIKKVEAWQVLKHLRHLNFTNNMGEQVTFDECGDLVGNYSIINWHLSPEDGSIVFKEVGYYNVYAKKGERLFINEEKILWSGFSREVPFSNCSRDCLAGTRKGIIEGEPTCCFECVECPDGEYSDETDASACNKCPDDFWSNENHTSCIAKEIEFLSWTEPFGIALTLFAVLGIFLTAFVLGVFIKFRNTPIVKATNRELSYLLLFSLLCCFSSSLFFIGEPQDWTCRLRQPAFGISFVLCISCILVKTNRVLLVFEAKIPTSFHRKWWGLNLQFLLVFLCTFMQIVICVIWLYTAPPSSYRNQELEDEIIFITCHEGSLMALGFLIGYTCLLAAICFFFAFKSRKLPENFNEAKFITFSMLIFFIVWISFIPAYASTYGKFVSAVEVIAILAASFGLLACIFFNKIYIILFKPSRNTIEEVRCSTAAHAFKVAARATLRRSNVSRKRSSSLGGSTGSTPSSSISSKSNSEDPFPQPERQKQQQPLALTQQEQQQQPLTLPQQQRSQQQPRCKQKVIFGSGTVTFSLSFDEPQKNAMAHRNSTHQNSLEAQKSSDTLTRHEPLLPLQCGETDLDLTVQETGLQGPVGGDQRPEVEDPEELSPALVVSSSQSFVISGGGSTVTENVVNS
Assay: Functional whole cell assay (modulation of human CaSR), IP1 accumulation in CHO-K1 cells
Format: cell-based
Details: CHO-K1 cells stably expressing human CaSR, final Ca2+ 1.9 mM, IP1 readout; concentration producing 50% of maximum agonistic response
Text: The assay investigates a compound's functional ability to act as a biological positive modulator on the human CaSR. Activation of the receptor expressed on CHO-K1 cells is detected through the G alpha q pathway, the activation of phospholipase C and the accumulation of intracellular inositol phosphate (IP) as described earlier [Sandrine Ferry, Bruno Chatel, Robert H. Dodd, Christine Lair, Danielle Gully, Jean-Pierre Maffrand, and Martial Ruat. Effects of Divalent Cations and of a Calcimimetic on Adrenocorticotropic Hormone Release in Pituitary Tumor Cells. Biochemical and biophysical research Communications 238, 866-873 (1997)]. The human CaSR is stably expressed on a CHO-K1 cell clone, stimulated with a basal level of calcium and challenged with the tested compound. The level of IP1 is determined using the IP-One Terbium htrf kit (Cisbio, France). CHO-K1 cells not transfected with the CaSR fail to elicit an IP1 response upon calcium and/or compound stimulation.
The ORF coding for the human CaSR (genebank: NM_000388) was acquired from Invitrogen Corp, USA and subsequently cloned into the mammalian expression vector pCDA3.1.
CHO-K1 cells were transfected using Lipofectamine according to manufacturer's protocol (400.000 cells/well were seeded in a 6-well plate and transfected after 24 hours using 2 μg DNA and 5 μl lipofectamine). After another 24 hours the cells were detached, seeded and subjected to 1 mg/ml of G-418. Following 7 days growth single clones were picked, the CaSR expression evaluated using the 5C10 antibody against CaSR, the clones with the highest expression were selected and tested for functional response. The preferred clone was cultured according to standard procedures described in ATCC (American Type Culture Collection) protocols for CHO-K1 with the addition of 500 μg/ml G-418.
On the assay day, cells were thawed, harvested and resuspended to 4*10^6 cells/ml in stimulation buffer (containing: Hepes 10 mM, MgCl2 0.5 mM, KCl 4.2 mM, NaCl 146 mM, glucose 5.5 mM, LiCl 50 mM, BSA 0.5% at pH 7.4). Ten μl cell solution was pipetted into wells of a white 384-well plate (Perkin Elmer Optiplate) containing 2 μl compound diluted in assay buffer (containing: Hepes 10 mM, MgCl2 0.5 mM, KCl 4.2 mM, NaCl 146 mM, glucose 5.5 mM, LiCl 50 mM, CaCl2 11.4 mM at pH 7.4), resulting in a final Ca^2+ concentration of 1.9 mM. After compound stimulation for 1 hour at 37° C. and 15 min at room temperature, 10 ul of IP-One assay detection reagent (prepared as described by the IP-One assay kit manufacturer) was added and the plate was incubated for another 1 hour at room temperature. Finally the plate was read using a Perkin Elmer EnVision, according to the protocol supplied by the IP-One assay kit manufacturer. The FRET ratio was calculated by dividing the 665 nm emission signal with that of the 615 nm.
The molar concentration of a compound that produces 50% of the maximum agonistic response (the […] value) is calculated according to the equation “General sigmoidal curve with Hill slope, a to d” (Equation 1). This model describes a sigmoidal curve with an adjustable baseline. The equation can be used to fit curves where response is either increasing or decreasing with respect to the independent variable, X. […]
y=(a−d)/(1+(x/c)̂b)+d Equation 1 x=concentration of tested compound […]
a=min response as compound concentration approaches 0 d=max response as concentration of tested compound is increasing […]
b=Hill coefficient or curve slope

SMILES | EC50 [nM]
COc1cc([C@@H](C)N[C@H]2CC[C@@H](c3ccc(OCC(=O)NCCS(N)(=O)=O)cc3)C2)ccc1F [Compound 104, 2-[4-[(1R,3S)-3-[[(1R)-1-(4-Fluoro-3-methoxy-phenyl)ethyl]-amino]-cyclopentyl]phenoxy]-N-(2-sulfamoylethyl)acetamide] | < 200
COc1cc([C@@H](C)N[C@H]2CC[C@@H](c3ccc(OCC(=O)NCCNCCO)cc3)C2)ccc1F [Compound 106, 2-[4-[(1R,3S)-3-[[(1R)-1-(4-Fluoro-3-methoxy-phenyl)ethyl]-amino]-cyclopentyl]phenoxy]-N-[2-(2-hydroxyethylamino)ethyl]acetamide] | < 200
COc1cc([C@@H](C)N[C@H]2CC[C@@H](c3ccc(OCC(=O)NCCNS(C)(=O)=O)cc3)C2)ccc1F [Compound 108, 2-[4-[(1R,3S)-3-[[(1R)-1-(4-Fluoro-3-methoxy-phenyl)ethyl]-amino]-cyclopentyl]phenoxy]-N-[2-(methanesulfonamido)ethyl]acetamide] | < 200
C[C@@H](N[C@H]1CC[C@@H](c2ccc(OCC(=O)NC3CCNCC3)cc2)C1)c1cccc2ccccc12 [Compound 112, 2-[4-[(1R,3S)-3-[[(1R)-1-(1-Naphthyl)ethyl]amino]cyclopentyl]-phenoxy]-N-(4-piperidyl)acetamide] | < 200

Further lines, results first:

EC50 [nM] | SMILES
< 200 | COc1cc([C@@H](C)N[C@H]2CC[C@@H](c3ccc(OCC(=O)N4CCNCC4)cc3)C2)ccc1F [Compound 103, 2-[4-[(1R,3S)-3-[[(1R)-1-(4-Fluoro-3-methoxy-phenyl)ethyl]-amino]-cyclopentyl]phenoxy]-1-piperazin-1-yl-ethanone]
< 200 | COc1cc([C@@H](C)N[C@H]2CC[C@@H](c3ccc(OCC(=O)N4CCN(C(C)=O)CC4)cc3)C2)ccc1F [Compound 109, 1-(4-Acetylpiperazin-1-yl)-2-[4-[(1R,3S)-3-[[(1R)-1-(4-fluoro-3-methoxy-phenyl)ethyl]amino]cyclopentyl]phenoxy]ethanone]
< 200 | COc1cc([C@@H](C)N[C@H]2CC[C@@H](c3ccc(OCC(=O)N4CCN(S(N)(=O)=O)CC4)cc3)C2)ccc1F [Compound 110, 4-[2-[4-[(1R,3S)-3-[[(1R)-1-(4-Fluoro-3-methoxy-phenyl)-ethyl]-amino]cyclopentyl]phenoxy]acetyl]piperazine-1-sulfonamide]
